“Also recorded” adds a separate entry of the source.
What was measured:
[1] = test system: aquaporin 1; experiment: Aquaporin 1 expression after exposure to aldosterone; details: normal rat, 24 hours exposure, low aldosterone dose (1-10 nM)
[2] = test system: ENaC-α; experiment: ENaC-α immunolocalization in retina of aldosterone-injected eyes; format: in vivo, Lewis rats; details: aldosterone-injected vs saline-injected eyes
Method: (§1) Anesthesia of rats was induced by intramuscular injection of ketamine (100 mg/kg, Virbac, Carros, France) and chlorpromazine (0.65 mg/kg, LARGACTIL®, Sanofi Aventis, Livron sur Drome, France). Intravitreous injections were performed using microfine (300 μl) syringes with 30 G needles under topical anesthesia (tetracaine 1%, Aldrich, Lyon, France). Rat eyes were injected with 5 μl aldosterone diluted in 0.9% saline to obtain a concentration of 200 nM for injection, corresponding to a final concentration of 20 nM in the vitreous. Control rat eyes were injected with 5 μl saline. Twenty-four hrs after injection, rats were sacrificed. Eyes were then removed for retinal flat mounting, immunohistochemistry and morphological analysis respectively.
Eyes were snap frozen in Tissue-Tek OCT-compound (Bayer Diagnostics, Puteaux, France). Ten μm cryostat sections of rat eyes were fixed in 4% PFA for 15 min and permeabilized with 0.1% Triton X-I00 for 30 min. Unspecific binding sites were blocked with 5% normal goat serum for 1 hr. The sections were then incubated with primary antibodies for 1 hr at room temperature, washed in PBS, and further incubated with secondary antibodies for 1 hr. […] Images were taken using a fluorescence microscope (Olympus BX51, Rungis, France) equipped with a CCD camera (Olympus DP70). […]

[3] = test system: GFAP; experiment: GFAP immunostaining of retinas from aldosterone-injected eyes (glial activation); format: in vivo, Lewis rats; details: intravitreous injection, vs sham-injected retinas
Method: as §1
Eyes were fixed for 15 min in 4% paraformaldehyde (PFA, LADD, Inland Europe, Conflans-sur-Lanterne, France). After washing, retinas were isolated, cut by 4 orthogonal incisions and post-fixed with acetone 100% at −20° C. for 15 min. They were then rehydrated with phosphate-buffered saline (PBS) containing 1% Triton X-I00, and incubated with a polyclonal rabbit antibody against AQP4 (1:100) or a polyclonal rabbit antibody against glial fibrillary acidic protein (GF AP, 1:100, Dako, Trappes, France) at room temperature under stirring overnight. […]

[4] = test system: retina; experiment: Intravitreous aldosterone injection in rat eyes: retinal morphology and thickness; format: in vivo, Lewis rats
Method: All experiments were performed in accordance with the European Communities Council Directive 86/609/EEC and approved by local ethical committees. Adult female Lewis rats (8-12 weeks old, Janvier, Le Genest-Saint-Isle, France) were used for preparation of RMG primary cultures, for retinal organotypic cultures and for in vivo experiments. Rats were sacrificed by carbon dioxide inhalation.
as §1
Enucleated eyes were fixed in 2.5% glutaraldehyde in cacodylate buffer (0.1 M, pH 7.4). After 30 min, eyes were dissected at the level of the limbus and lens removed. The posterior part was fixed for a further 5 hrs, dehydrated in a graded alcohol series (50%, 70%, 95% and 100%) and embedded in epoxy resin. Semi-thin sections (1 J.Im) were cut using an ultramicrotome (Reichert Ultracut E, Leica, Wetzlar, Germany), and stained with toluidine blue. The morphology was examined under a light microscope (DMRB, Leica). Retinal thickness was measured manually every 100 μm from the peripheral to the posterior pole. For analysis, the retina was divided into 3 zones: periphery, middle and posterior pole. In each zone, 3-4 individual measurements were performed in each section. Two to 6 sections were analyzed per rat (3 rats with aldosterone intravitreous injection and 3 with sham injection)

[5] = single intravitreous injection, 20 nM, 24 hrs later

Structure (SMILES): C[C@]12CCC(=O)C=C1CC[C@@H]1[C@@H]2[C@@H](O)C[C@]2(C=O)[C@@H](C(=O)CO)CC[C@@H]12 [aldosterone]
- expression of aquaporin 1 [1]: reduces
- ENaC-α expression intensity and number of expressing cells in retina [2]: increased in the INL
- glial (RMG) activation, GFAP distribution [3]: enhances glial activation; also recorded: strong activation of RMG
- retinal swelling (increase compared to sham-injected eyes) ([4]; intravitreous injection, 20 nM final in the vitreous, 24 hrs): 24%
- Retinal thickness compared to sham-injected eyes [4, 5]: significantly increased
- retinal morphological changes on semi-thin sections [4, 5]: fluid accumulation in the entire retina

Source: patent US9610294B2, “Methods and compositions for the treatment of fluid accumulation in and/or under the retina” (UNIVERSITE PARIS DESCARTES, priority 2010, dated 2017)
